“And” between values parts separate entries of the source, which are not always exact repeats. Equal values may be shown once. Inconclusive results and toxic doses are left out.
Tested on: L1210 leukemia iv in BDF1 mice, survival T/C
Test: NCI In Vivo Anticancer Drug Screen. Data for tumor model L1210 Leukemia (intravenous) in B6D2F1 (BDF1) mice
Details: higher = longer survival
Procedure: The antitumor activity of compounds was measured in mice bearing transplantable tumors. Survival or tumor size were measured and the results are expressed as the measurement made in the treated group (T) divided by the measurement made in the vehicle treated control group (C). The tumor model used in this assay is L1210 Leukemia (intravenous) in B6D2F1 (BDF1) mice

SMILES: O=NN(CCCl)C(=O)NC1CCC(NC(=O)N(CCCl)N=O)CC1 (configuration not stated)
- T/C (endpoint: mean survival time, dose: 23.0 mg/kg/injection, schedule: Q01DX001 (ip), vehicle: other): 157 % of control and 193 % of control
- T/C (endpoint: mean survival time, dose: 38.0 mg/kg/injection, schedule: Q01DX001 (oral), vehicle: other): 124 % of control
- T/C (endpoint: mean survival time, dose: 44.0 mg/kg/injection, schedule: Q01DX001 (ip), vehicle: saline with Tween-80): 169 % of control
- T/C (endpoint: mean survival time, dose: 48.0 mg/kg/injection, schedule: Q01DX001 (ip), vehicle: other): 450 % of control and 218 % of control
- T/C (endpoint: mean survival time, dose: 67.0 mg/kg/injection, schedule: Q01DX001 (ip), vehicle: saline with Tween-80): 178 % of control and 169 % of control
- T/C (endpoint: mean survival time, dose: 84.0 mg/kg/injection, schedule: Q01DX001 (oral), vehicle: other): 150 % of control and 165 % of control
- T/C (endpoint: mean survival time, dose: 96.0 mg/kg/injection, schedule: Q01DX001 (ip), vehicle: other): 375 % of control and 594 % of control
- T/C (endpoint: mean survival time, dose: 100.0 mg/kg/injection, schedule: Q01DX001 (ip), vehicle: saline with Tween-80): 246 % of control and 238 % of control
- T/C (endpoint: mean survival time, dose: 150.0 mg/kg/injection, schedule: Q01DX001 (ip), vehicle: saline with Tween-80): 255 % of control and 263 % of control
- T/C (endpoint: mean survival time, dose: 171.0 mg/kg/injection, schedule: Q01DX001 (oral), vehicle: other): 177 % of control and 214 % of control
- T/C (endpoint: mean survival time, dose: 191.0 mg/kg/injection, schedule: Q01DX001 (ip), vehicle: other): 475 % of control and 531 % of control
- T/C (endpoint: mean survival time, dose: 225.0 mg/kg/injection, schedule: Q01DX001 (ip), vehicle: saline with Tween-80): 438 % of control and 328 % of control
- T/C (endpoint: mean survival time, dose: 319.0 mg/kg/injection, schedule: Q01DX001 (oral), vehicle: other): 453 % of control and 274 % of control
- T/C (endpoint: mean survival time, dose: 337.0 mg/kg/injection, schedule: Q01DX001 (ip), vehicle: saline with Tween-80): 507 % of control
- T/C (endpoint: mean survival time, dose: 383.0 mg/kg/injection, schedule: Q01DX001 (ip), vehicle: other): 340 % of control and 381 % of control
- T/C (endpoint: mean survival time, dose: 638.0 mg/kg/injection, schedule: Q01DX001 (oral), vehicle: other): 478 % of control and 554 % of control

SMILES: COc1cccc2c1C(=O)c1c(O)c3c(c(O)c1C2=O)C[C@@](O)(C(C)=O)C[C@@H]3OC1CC(N)C(O)C(C)O1 (some centres not stated)
- T/C (endpoint: mean survival time, dose: 3.0 mg/kg/injection, schedule: Q04DX003 (iv), vehicle: water): 216 % of control
- T/C (endpoint: mean survival time, dose: 5.0 mg/kg/injection, schedule: Q01DX001 (iv), vehicle: saline): 105 % of control
- T/C (endpoint: mean survival time, dose: 5.0 mg/kg/injection, schedule: Q04DX003 (iv), vehicle: water): 121 % of control
- T/C (endpoint: mean survival time, dose: 10.0 mg/kg/injection, schedule: Q01DX001 (iv), vehicle: saline): 115 % of control
- T/C (endpoint: mean survival time, dose: 14.0 mg/kg/injection, schedule: Q04DX003 (iv), vehicle: water): 160 % of control
- T/C (endpoint: mean survival time, dose: 20.0 mg/kg/injection, schedule: Q01DX001 (iv), vehicle: saline): 150 % of control
- T/C (endpoint: mean survival time, dose: 23.0 mg/kg/injection, schedule: Q04DX003 (iv), vehicle: water): 84 % of control

SMILES: O=NN(CCCl)C(=O)NC1CCCCC1
- T/C (endpoint: mean survival time, dose: 5.1 mg/kg/injection, schedule: Q01DX001 (ip), vehicle: carboxymethylcellulose (CMC)): 102 % of control
- T/C (endpoint: mean survival time, dose: 10.0 mg/kg/injection, schedule: Q04DX004 (ip), vehicle: carboxymethylcellulose (CMC)): 124 % of control
- T/C (endpoint: mean survival time, dose: 15.0 mg/kg/injection, schedule: Q01DX001 (ip), vehicle: Klucel (hydroxypropylcellulose) (HPC)): 170 % of control
- T/C (endpoint: mean survival time, dose: 16.0 mg/kg/injection, schedule: Q04DX004 (ip), vehicle: carboxymethylcellulose (CMC)): 160 % of control
- T/C (endpoint: mean survival time, dose: 16.6 mg/kg/injection, schedule: Q01DX001 (ip), vehicle: carboxymethylcellulose (CMC)): 163 % of control and 174 % of control
- T/C (endpoint: mean survival time, dose: 17.0 mg/kg/injection, schedule: Q01DX001 (ip), vehicle: carboxymethylcellulose (CMC)): 176 % of control
- T/C (endpoint: mean survival time, dose: 18.0 mg/kg/injection, schedule: Q01DX001 (ip), vehicle: Klucel (hydroxypropylcellulose) (HPC)): 177 % of control
- T/C (endpoint: mean survival time, dose: 21.0 mg/kg/injection, schedule: Q01DX001 (ip), vehicle: carboxymethylcellulose (CMC)): 218 % of control and 241 % of control
- T/C (endpoint: mean survival time, dose: 22.0 mg/kg/injection, schedule: Q01DX001 (ip), vehicle: Klucel (hydroxypropylcellulose) (HPC)): 227 % of control
- T/C (endpoint: mean survival time, dose: 22.0 mg/kg/injection, schedule: Q01DX001 (ip), vehicle: carboxymethylcellulose (CMC)): 192 % of control and 225 % of control
- T/C (endpoint: mean survival time, dose: 22.0 mg/kg/injection, schedule: Q04DX004 (ip), vehicle: carboxymethylcellulose (CMC)): 360 % of control
- T/C (endpoint: mean survival time, dose: 27.0 mg/kg/injection, schedule: Q01DX001 (ip), vehicle: Klucel (hydroxypropylcellulose) (HPC)): 161 % of control
- T/C (endpoint: mean survival time, dose: 30.0 mg/kg/injection, schedule: Q01DX001 (ip), vehicle: carboxymethylcellulose (CMC)): 346 % of control
- T/C (endpoint: mean survival time, dose: 33.0 mg/kg/injection, schedule: Q04DX004 (ip), vehicle: carboxymethylcellulose (CMC)): 709 % of control
- T/C (endpoint: mean survival time, dose: 33.5 mg/kg/injection, schedule: Q01DX001 (ip), vehicle: Klucel (hydroxypropylcellulose) (HPC)): 574 % of control
- T/C (endpoint: mean survival time, dose: 37.5 mg/kg/injection, schedule: Q01DX001 (ip), vehicle: carboxymethylcellulose (CMC)): 534 % of control and 560 % of control and 606 % of control
- T/C (endpoint: mean survival time, dose: 40.0 mg/kg/injection, schedule: Q01DX001 (ip), vehicle: Klucel (hydroxypropylcellulose) (HPC)): 222 % of control
- T/C (endpoint: mean survival time, dose: 40.0 mg/kg/injection, schedule: Q01DX001 (ip), vehicle: carboxymethylcellulose (CMC)): 368 % of control
- T/C (endpoint: mean survival time, dose: 42.0 mg/kg/injection, schedule: Q01DX001 (ip), vehicle: Klucel (hydroxypropylcellulose) (HPC)): 438 % of control
- T/C (endpoint: mean survival time, dose: 43.0 mg/kg/injection, schedule: Q01DX001 (ip), vehicle: carboxymethylcellulose (CMC)): 633 % of control and 707 % of control
- T/C (endpoint: mean survival time, dose: 50.0 mg/kg/injection, schedule: Q01DX001 (ip), vehicle: Klucel (hydroxypropylcellulose) (HPC)): 407 % of control
- T/C (endpoint: mean survival time, dose: 56.0 mg/kg/injection, schedule: Q01DX001 (ip), vehicle: Klucel (hydroxypropylcellulose) (HPC)): 464 % of control
- T/C (endpoint: mean survival time, dose: 60.0 mg/kg/injection, schedule: Q01DX001 (ip), vehicle: Klucel (hydroxypropylcellulose) (HPC)): 336 % of control
- T/C (endpoint: mean survival time, dose: 62.5 mg/kg/injection, schedule: Q01DX001 (ip), vehicle: carboxymethylcellulose (CMC)): 652 % of control and 662 % of control and 775 % of control
- T/C (endpoint: mean survival time, dose: 70.0 mg/kg/injection, schedule: Q01DX001 (ip), vehicle: Klucel (hydroxypropylcellulose) (HPC)): 519 % of control
- T/C (endpoint: mean survival time, dose: 75.0 mg/kg/injection, schedule: Q01DX001 (ip), vehicle: carboxymethylcellulose (CMC)): 826 % of control
- T/C (endpoint: mean survival time, dose: 86.0 mg/kg/injection, schedule: Q01DX001 (ip), vehicle: carboxymethylcellulose (CMC)): 242 % of control and 297 % of control
- T/C (endpoint: mean survival time, dose: 90.0 mg/kg/injection, schedule: Q01DX001 (ip), vehicle: Klucel (hydroxypropylcellulose) (HPC)): 522 % of control

SMILES: O=NN(CCCl)C(=O)NCCCl
- T/C (endpoint: mean survival time, dose: 7.0 mg/kg/injection, schedule: Q01DX001 (ip), vehicle: other): 152 % of control and 175 % of control
- T/C (endpoint: mean survival time, dose: 10.0 mg/kg/injection, schedule: Q01DX001 (ip), vehicle: other): 197 % of control
- T/C (endpoint: mean survival time, dose: 10.0 mg/kg/injection, schedule: Q01DX001 (ip), vehicle: saline + alcohol): 347 % of control (2×) and 204 % of control
- T/C (endpoint: mean survival time, dose: 10.0 mg/kg/injection, schedule: Q04DX004 (ip), vehicle: other): 256 % of control
- T/C (endpoint: mean survival time, dose: 15.0 mg/kg/injection, schedule: Q04DX004 (ip), vehicle: other): 719 % of control
- T/C (endpoint: mean survival time, dose: 18.0 mg/kg/injection, schedule: Q01DX001 (ip), vehicle: saline + alcohol): 263 % of control
- T/C (endpoint: mean survival time, dose: 20.0 mg/kg/injection, schedule: Q04DX004 (ip), vehicle: other): 629 % of control
- T/C (endpoint: mean survival time, dose: 27.0 mg/kg/injection, schedule: Q01DX001 (ip), vehicle: other): 335 % of control and 283 % of control and 316 % of control
- T/C (endpoint: mean survival time, dose: 27.0 mg/kg/injection, schedule: Q01DX001 (ip), vehicle: saline + alcohol): 358 % of control
- T/C (endpoint: mean survival time, dose: 27.0 mg/kg/injection, schedule: Q01DX001 (oral), vehicle: other): 481 % of control and 523 % of control and 549 % of control
- T/C (endpoint: mean survival time, dose: 30.0 mg/kg/injection, schedule: Q01DX001 (ip), vehicle: other): 385 % of control
- T/C (endpoint: mean survival time, dose: 30.0 mg/kg/injection, schedule: Q04DX004 (ip), vehicle: other): 621 % of control
- T/C (endpoint: mean survival time, dose: 31.0 mg/kg/injection, schedule: Q01DX001 (ip), vehicle: other): 342 % of control and 248 % of control
- T/C (endpoint: mean survival time, dose: 39.0 mg/kg/injection, schedule: Q01DX001 (ip), vehicle: other): 373 % of control and 400 % of control and 473 % of control
- T/C (endpoint: mean survival time, dose: 40.0 mg/kg/injection, schedule: Q01DX001 (oral), vehicle: other): 553 % of control and 633 % of control and 678 % of control
- T/C (endpoint: mean survival time, dose: 49.0 mg/kg/injection, schedule: Q01DX001 (ip), vehicle: other): 466 % of control and 478 % of control and 532 % of control
- T/C (endpoint: mean survival time, dose: 60.0 mg/kg/injection, schedule: Q01DX001 (oral), vehicle: other): 434 % of control and 471 % of control and 625 % of control
- T/C (endpoint: mean survival time, dose: 62.0 mg/kg/injection, schedule: Q01DX001 (ip), vehicle: other): 120 % of control and 297 % of control
- T/C (endpoint: median survival time, dose: 18.0 mg/kg/injection, schedule: Q## X001 (ip), vehicle: saline + alcohol): 188 % of control
- T/C (endpoint: median survival time, dose: 30.0 mg/kg/injection, schedule: Q## X001 (ip), vehicle: saline + alcohol): 241 % of control
- T/C (endpoint: median survival time, dose: 48.0 mg/kg/injection, schedule: Q## X001 (ip), vehicle: saline + alcohol): 297 % of control

— PubChem BioAssay AID254 (DTP/NCI, 2004)
